In patent US20180110837A1, “METHODS AND ASSAYS RELATING TO MACROPHAGE DIFFERENTIATION” (THE BRIGHAM AND WOMEN'S HOSPITAL, INC., priority 2012, published 2018):
Entries after “also recorded” stand apart in the source; their conditions may differ. One block for each compound: values may come before it.

Key:
[1] = tested on: CNV lesions; experiment: laser-induced CNV in rats, intravitreal ROCK inhibition; assay type: in vivo, Brown Norway rats
Excerpt: (§1) To induce CNV, C57BL/6 mice were anesthetized and pupils were dilated with 5% phenylephrine and 0.8% tropicamide. Using a 532-nm laser (Oculight GLx, Iridex), a slit-lamp delivery system, and a cover glass as a contact lens, four spots (100 mW, 50 μm, 100 ms) were placed in each eye. The lesions were located at 3, 6, 9 and 12 o'clock, meridians centered on the optic nerve head and located 2 to 3 disk diameter from the optic nerve head. The same technique was used to induce CNV in Brown Norway rats (four spots, 150 mW, 100m, 100 ms) 53,54 and cynomolgus monkeys (700 mW, 100m, 100 ms) 29. Development of a bubble under laser radiation confirmed the rupture of the Bruch's membrane. Eyes showing hemorrhage were excluded from experiments.
Seven or fourteen days after laser injury, the size of CNV lesions was measured in choroidal flat mounts. Briefly, mice were anesthetized and perfused through the left ventricle with PBS, followed by 5 ml of 5% fluorescein isothiocyanate-dextran (FD2000S; Sigma Aldrich) in 1% gelatin. The anterior segment and retina were removed from the eyecup. […] The volume of the lesions was quantified, using confocal microscopy (Leica TCS SP2 laser scanning confocal microscope). The magnitude of the CNV lesions was determined by measuring the hyperfluorescent area with Openlab Software (Improvision). The grade of leakage was determined by Fluorescein angiography (FA). […]

[2] = electroretinography (ERG) after intravitreal injection; assay type: in vivo, Brown Norway rats; conditions: rats, intravitreal injections on days 0, 3 and 6
Protocol: On day 13, rats were dark-adapted overnight and then anesthetized. Pupils were dilated using 1% tropicamide. Methods for recording dark- and light-adapted ERGs were performed as previously described 55.

[3] = molecular target: T1, ROCK1 (Homo sapiens, UniProt Q13464); conditions: at concentrations up to 10 μM; cited from earlier work
T1 construct: recombinant ROCK1 and ROCK2 enzymes containing the truncated catalytic domains (PV3691 and PV3759) were purchased from Invitrogen; purchased Invitrogen PV3691
T1 sequence (Q13464 76-338 limits assumed): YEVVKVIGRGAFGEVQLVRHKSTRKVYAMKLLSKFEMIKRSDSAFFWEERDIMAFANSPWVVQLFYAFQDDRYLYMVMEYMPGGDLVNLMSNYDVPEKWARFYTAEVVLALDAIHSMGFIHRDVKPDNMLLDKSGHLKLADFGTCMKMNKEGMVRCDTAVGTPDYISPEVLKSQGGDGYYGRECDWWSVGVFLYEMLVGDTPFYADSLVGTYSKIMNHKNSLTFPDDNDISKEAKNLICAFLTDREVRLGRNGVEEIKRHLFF

[4] = tested on: HUVEC cells; experiment: cytoskeletal staining (F-actin, paxillin) of HUVEC cells; assay type: cell-based; conditions: versus vehicle treated controls
Excerpt: FIG. 11A depicts HUVEC cells stained for the cytoskeletal proteins F-actin and paxillin. […] Scale bar, 20 μm. FIG. 11B depicts Western analysis of HUVECs transfected with siRNA targeting of ROCK1, ROCK2, or both. Negative control, a scramble 20-mer RNA. BlockIt (Invitrogen), a fluorescently labeled RNA to track uptake/transfection efficiency.

[5] = tested on: CNV lesions; experiment: laser-induced CNV in mice, lesion size in choroidal flat mounts; assay type: in vivo, mouse; conditions: for CNV lesions on day 14: treatment from day 1 or from day 7 after laser injury
Excerpt: as §1
Seven or fourteen days after laser injury, the size of CNV lesions was measured in choroidal flat mounts. Briefly, mice were anesthetized and perfused through the left ventricle with PBS, followed by 5 ml of 5% fluorescein isothiocyanate-dextran (FD2000S; Sigma Aldrich) in 1% gelatin. The anterior segment and retina were removed from the eyecup. The remaining retinal pigment epithelium (RPE)-choroidsclera complex was flat mounted, after relaxing radial incisions, using Mounting Medium (FM 100119, Thermo Scientific) and coverslips. Micrographs of the choroidal complex were taken with a Leica Microscope. The volume of the lesions was quantified, using confocal microscopy (Leica TCS SP2 laser scanning confocal microscope). The magnitude of the CNV lesions was determined by measuring the hyperfluorescent area with Openlab Software (Improvision). The grade of leakage was determined by Fluorescein angiography (FA).
The control animals received equivalent amounts of vehicle, glyceryl trioctanoate (91039, Sigma-Aldrich).

[6] = tested on: CD11b/CD206 infiltrating cells in CNV; experiment: FACS analysis of infiltrating cells from CNV eyes; assay type: in vivo, mouse
Protocol: To examine macrophages in the retina and choroid, cells were prepared from mouse eyes. To collect a sufficient number of ocular infiltrating cells, 50 burns were delivered to mouse eyes by laser. After laser injury, eyes were enucleated at different time points (1, 2, 3, 5, and 7 days). The anterior segment (cornea, iris, and lens) was excised and the posterior segment of the eye including sclera, choroid, and retina was disrupted with scissors and then shaken in DMEM (plus 10% FBS (Gibco Laboratories), 100 U/ml penicillin, 100 μg/ml streptomycin) supplemented with 0.5 mg/ml Collagenase type D (11 088 874 103, Boehringer Mannheim) at 37° C. for 60 min. The supernatants were collected and passed through a mesh. After 3 washes, viable cells were obtained. A total of 12 eyes (6 individual pools) were examined per group. The cells were stained with PE anti-mouse CD11b (557397, BD Pharmingen), FITC antimouse CD206 (MMR, 123005; BioLegend) and PE-Cy5 anti-mouse CD80 Abs (15-0801-81, eBioscience). RAW 264.7 cells were stained with PerCP anti-mouse CD11b (101230, BioLegend), PerCP anti-mouse F4/80 (123006, BioLegend), PE anti-mouse CD80 (12-0801, eBioscience), FITC anti-mouse CD206 (141704, BioLegend). […] The control animals received equivalent amounts of vehicle, glyceryl trioctanoate (91039, Sigma-Aldrich).

[7] = tested on: vascular leakage of CNV lesions; experiment: leakage from angiogenic vessels by fluorescein angiography after laser injury; assay type: in vivo, mice
Protocol: FA was performed in anesthetized Brown Norway rats from ROCK inhibitor or vehicle treated groups, using a digital fundus camera (SLO; HRA2; Heidelberg Engineering), 7 and 14 days after laser injury. Fluorescein injections were performed intravenously (0.2 ml of 2% fluorescein; Akorn, NDC 17478-253-10). Monkeys were injected with 5% fluorescein intravenously (Fluorescite, Alcon). FA images were evaluated by two masked retina specialists. The grading criteria were as follows: Grade-0, no hyperfluorescence; Grade-I, hyperfluorescence without leakage; Grade-IIA, hyperfluorescence in the early or mid-transit images and late leakage; Grade-IIB, bright hyperfluorescence in the transit images and late leakage beyond the treated areas. The Grade-IIB lesions were considered as clinically significant, as described previously 53. […] The control animals received equivalent amounts of vehicle, glyceryl trioctanoate (91039, Sigma-Aldrich).

[8] = in vivo; cited from earlier work
[9] = tested on: protein kinase A and C; conditions: cited from earlier work
[10] = molecular target: T1, ROCK1; experiment: ROCK1 enzymatic activity, [γ33P]ATP / S6 kinase substrate radiometric assay (FIG. 7A); assay type: biochemical; conditions: FIG. 7B; ROCK1 versus ROCK2
[11] = molecular target: MLCK; conditions: read-out: Ki MLCK; cited from earlier work
[12] = tested on: all tested kinases; conditions: scale of 0 to 1; over 175 inhibitors; cited from earlier work
[13] = tested on: CNV lesions; experiment: laser-induced CNV in cynomolgus monkeys, intravitreal fasudil; assay type: in vivo, cynomolgus monkey
Protocol: Eyes from cynomolgus monkeys between 3 and 4 years of age were used in this study. Cynomolgus monkeys were restrained in a squeeze cage and injected intramuscularly in the thigh with 20 mg/kg of ketamine hydrochloride (Sankyo Yell Pharmaceutical Products Co) for general anesthesia.
Paraffin embedded sections of human eyes were deparaffinized and rehydrated with a graded alcohol series. Immunofluorescent staining was performed with antibodies (Abs) against human von Willebrandt factor (F3520, Sigma), human MMR (CD206, MAB2534, R&D Systems), human CD80 (ab53003 Abcam) or human ROCK1 (sc-17794, Santa Cruz Biotechnology) or ROCK2 (sc-1851, Santa Cruz Biotechnology) and identified with Alexa Fluor 488 (10 μg/ml, A-11055; Invitrogen) or 647 (10 μg/ml, A21244; Invitrogen) secondary Abs. On day 3 after laser injury, 10 μm frozen sections of the posterior segment were prepared. The mouse eye sections were incubated with a rat anti-mouse F4/80 mAb (MCA497R, AbD Serotec) or CD11b (550282, BD Pharmingen), and subsequently with the secondary Ab. In monkey eyes, CD68 (goat polyclonal antibody, sc-7082, Santa Cruz), vWF (rabbit polyclonal antibody, A0082, DAKO), ROCK1 (mouse monoclonal antibody, sc-17794, Santa Cruz) and ROCK2 (goat polyclonal antibody, sc-1851, Santa Cruz) were stained. Images were obtained with a Leica microscope.
To induce CNV, C57BL/6 mice were anesthetized and pupils were dilated with 5% phenylephrine and 0.8% tropicamide. Using a 532-nm laser (Oculight GLx, Iridex), a slit-lamp delivery system, and a cover glass as a contact lens, four spots (100 mW, 50 μm, 100 ms) were placed in each eye. The lesions were located at 3, 6, 9 and 12 o'clock, meridians centered on the optic nerve head and located 2 to 3 disk diameter from the optic nerve head. […]
FA was performed in anesthetized Brown Norway rats from ROCK inhibitor or vehicle treated groups, using a digital fundus camera (SLO; HRA2; Heidelberg Engineering), 7 and 14 days after laser injury. […] FA images were evaluated by two masked retina specialists. […]

[14] = IL-4, IL-10 and IL-13 injected eyes, in addition ROCK2 inhibitor treated
[15] = M1-cytokine cocktail injected eyes, in addition ROCK2 inhibitor treated
[16] = systemic treatment after laser injury
[17] = monkeys, intravitreal injections

Structure (SMILES): CC(C)NC(=O)COc1cccc(-c2nc(Nc3ccc4[nH]ncc4c3)c3ccccc3n2)c1 [SLx-2119]
CNV size (day 7) [1]: reduces CNV | changes in the electroretinogram (ERG) [2]: does not cause functional ERG changes | ROCK1 enzymatic activity [3]: did not affect | paxillin distribution [4]: comparable to the control cells | CNV size [5, 14]: reduced to control levels | CNV [5, 15]: remained unaffected | CNV size in adiponectin−/− mice ([5]; adiponectin−/− mice): lack of function | dose at which maximum efficacy was reached ([5]; intraperitoneal): 10 mg/kg | reduction of CNV ([5]; intraperitoneal, dose of 1 mg/kg): 66% | CNV size [5, 16]: significantly decreased | CNV size ([5]; systemic treatment after laser injury, listed as selective ROCK2 inhibitor): significantly reduced | CNV lesions on day 14 ([5]; listed as ROCK2 inhibitor): reduced; also recorded: CNV reduction | MaDAMs [6]: significantly decreased | percentage of clinically relevant 2B leakage [7, 14]: reduced to control levels | leakage [7, 15]: remained unaffected | leakage / percentage of the clinically relevant 2B leakages ([7]; fluorescein angiography): significantly decreased | phase I clinical (toxicity) trial [8]: successfully completed

inhibitory activities against ROCK1 and ROCK2 compared [10]: equipotent
Structure (SMILES): C[C@@H](N)[C@H]1CC[C@H](C(=O)Nc2ccncc2)CC1 [Y-27632, (R)-(+)-trans-N-(4-pyridyl)-4-(1-aminoethyl)-cyclohexanecarboxamide]
paxillin distribution [4]: concentrated in the nuclear or immediate perinuclear regions | effect on protein kinase A and C [9]: affect

Structure (SMILES): Cl.O=S(=O)(c1cccc2cnccc12)N1CCCNCC1 [fasudil, 5-(1,4-diazepan-1-ylsulfonyl)isoquinoline hydrochloride]
CNV size (day 7) [1]: reduces CNV | Ki [11]: 36 µM | changes in the electroretinogram (ERG) [2]: does not cause functional ERG changes | paxillin distribution [4]: concentrated in the nuclear or immediate perinuclear regions | reduction of CNV lesions compared to control ([5]; pan ROCK inhibition, rodents): ~60% | CNV size [5, 16]: significantly smaller | CNV lesions on day 14 [5]: CNV reduction | gini score [12]: 0.63 | effect on protein kinase A and C [9]: affect | inhibitory activities against ROCK1 and ROCK2 compared [10]: equipotent | macrophage infiltration into CNV lesions ([13]; monkey eyes, intravitreal injection): significantly reduced | CNV membrane thickness [13, 17]: significantly reduced | percentage of the clinically relevant 2B leakages [13, 17]: significantly reduced
